{
  "source": "paper PMC12186490",
  "about": "“Environmental pH controls antimicrobial production by human probiotic Streptococcus salivarius” (Journal of Bacteriology, 2025)",
  "system": "sar-BGC (sarD) expression in WT SAL",
  "experiment": "sarD transcript levels by qRT-PCR after lactate supplementation of WT SAL",
  "format": "cell-based, Streptococcus salivarius K12",
  "settings": "WT SAL at late-exponential growth (A600 ~ 2.0), fresh THY with sodium lactate, 15 minutes; relative to WT-LE growth; three biological replicates",
  "experimental": "Fig 2 SAL upregulates sar-BGC expression in concert with environmental acidification. (A) Wild-type (WT) SAL was grown in THY broth, and samples were collected at the indicated time points. Growth medium pH, sar-BGC (sarD) transcript levels, and bacterial growth by absorption at wavelength 600 nm (A600) were determined. Right y-axes represent fold change in sar-BGC transcript levels (green) and A600 (red), whereas the left y-axis represents pH of the growth medium (black). Fold changes in transcript levels at indicated time points relative to starting culture (time point t = 0 h) are shown. Data are mean ± standard deviation for three biological replicates. (B) WT SAL grown in THY to late-exponential growth phase (LE, A600 ~ 2.0) was harvested by centrifugation, suspended in THY broth adjusted to indicated pH, and incubated for 15 minutes. […] P values assessed by t-test analyses relative to WT LE growth are shown (n.s, not significant; *, P < 0.05; ****, P < 0.0001). […]\nSAL and other lactic acid bacteria acidify their environment via lactic acid production during their growth. […] After 15 min incubation, cells were collected and sarD transcript levels in each pH were assessed by quantitative real-time PCR (qRT-PCR). […] To test whether lactate acts as a signal for the induction of sar-BGC expression, we assessed sarD transcript levels in SAL grown in the presence of lactate. […]",
  "data": [
    {"compound": "CC(O)C(=O)[O-].[Na+]", "note": "(stereo not shown) [lactate, sodium lactate]", "values": [
      {"measurement": "induction of sar-BGC expression (sarD transcript levels)", "value": "did not induce sar-BGC expression"}
    ]}
  ]
}
